Values quoted from earlier work, collected in patent US7087219B2, “Toothpaste containing anticancer agents” (priority 2003, dated 2006).

Key:
[1] = according to publications and patents (Burzynski et al. 1986)
[2] = general statement; marketed as a food supplement

## O=C1CCC(NC(=O)Cc2ccccc2)C(=O)N1 (centres unmarked) [3-N-phenylacetylamino-2,6-piperidinedione]
[1]
  efficacy in treating cancers in clinical trials: effective in treating a variety of cancers in clinical trials
[2]
  toxicity: completely non-toxic
